In general, IC50 refers to the concentration that inhibits the measured activity by half.

Activity calls are given as the source filed them.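 How the source made its calls: active means mean IC50 for reducing PEG3 promoter reporter signal at or below a set limit, with IC50 above the limit in both counter screens; inactive means the rest, including counter screen hits.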

Drawing on PubChem BioAssay AID624167 (Sanford-Burnham Center for Chemical Genomics, 2012), this text covers IC50 for 26 compounds.

The target in experiment [1] is PEG-3 (UniProt Q6IN02). Description: inhibition of PEG-3 promoter-driven reporter – cell-based, HeLa, luciferase, CREF/GAPDH counter-screen panel, dose response (AID 624167). The settings on record: HeLa PEG-Prom luciferase reporter, overnight, CREF/GAPDH counter-screens, mean of runs.
Experiment [2] concerns PEG-3. The description is as above. The settings on record: HeLa PEG-Prom luciferase reporter, overnight, CREF/GAPDH counter-screens. (A reporter such as luciferase makes a cellular process visible.)
The mark [3] stands for this setting: run 1, dose range 1, individual replicate IC50 per panel.
Setting [4] is: run 2, dose range 1, individual replicate IC50 per panel.

Sequence of PEG-3 (UniProt Q6IN02) (Q6IN02 whole entry, looked up): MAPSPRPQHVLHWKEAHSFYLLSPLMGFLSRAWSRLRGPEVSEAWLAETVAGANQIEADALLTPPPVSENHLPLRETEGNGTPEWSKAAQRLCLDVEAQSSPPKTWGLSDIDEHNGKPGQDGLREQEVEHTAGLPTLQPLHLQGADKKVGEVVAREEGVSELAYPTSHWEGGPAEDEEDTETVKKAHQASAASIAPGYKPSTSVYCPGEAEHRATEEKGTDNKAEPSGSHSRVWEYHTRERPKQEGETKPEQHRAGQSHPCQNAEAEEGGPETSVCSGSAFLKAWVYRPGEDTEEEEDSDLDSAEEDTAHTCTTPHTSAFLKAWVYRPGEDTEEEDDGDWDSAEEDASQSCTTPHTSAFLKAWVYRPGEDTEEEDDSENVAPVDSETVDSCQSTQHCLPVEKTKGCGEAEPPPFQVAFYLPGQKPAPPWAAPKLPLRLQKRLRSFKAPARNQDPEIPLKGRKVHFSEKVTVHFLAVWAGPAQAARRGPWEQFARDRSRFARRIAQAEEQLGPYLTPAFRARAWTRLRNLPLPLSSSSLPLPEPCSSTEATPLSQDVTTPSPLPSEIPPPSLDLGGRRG

Turning to `O=[N+]([O-])c1ccc(NC2CCN(Cc3ccccc3)CC2)c2ccncc12`, the IC50 entry on PEG-3 [1] was “inactive”. For the same compound, the results for the IC50 in the experiment on PEG-3 [2] (setting [3]) and with PEG-3 [2] (setting [4]) were 23.9 µM and 21.7 µM, respectively.
For the compound `O=C(CCCN1C(=O)/C(=C/c2cccc(Br)c2)SC1=S)Nc1cccnc1`, the figures for the concentration for half-maximal inhibition (IC50) at PEG-3 [1], in the experiment on PEG-3 [2] (setting [3]) and in the experiment with PEG-3 [2] (setting [4]) were 13.6 µM, 15.1 µM and 12.1 µM, respectively.
For `COc1ccc(C2c3c(ncn(CCCN4CCOCC4)c3=N)Oc3ccc4ccccc4c32)cc1OC` (stereo not drawn) the same measures were 18.7 µM, 20.9 µM and 16.5 µM.
On the same counts, the results for `OCCNCc1cc(Br)ccc1OCc1ccc(Cl)cc1Cl` are 17.4 µM, 16.9 µM and 17.9 µM.
On to `O=C(C(=O)N(Cc1ccccc1)Cc1ccccc1)c1c(-c2ccccc2)[nH]c2ccccc12`, for which, at PEG-3 [1], the IC50 entry was “inactive”. Also, the half-maximal inhibitory concentration (IC50) was more than 100 µM in the experiment with PEG-3 [2] (setting [3]) and 7.5 µM in the experiment with PEG-3 [2] (setting [4]).
For `CC(C)c1ccc(/C=N/Nc2ccc(C(=O)O)cc2)cc1` the same measures were 15.3 µM, 11.1 µM and 19.4 µM.
Regarding `OC1(c2ccc(Cl)c(Cl)c2)C[n+]2ccccc2N1Cc1ccccc1` (stereo not drawn), the values for the IC50 on PEG-3 [1], in the experiment on PEG-3 [2] (setting [3]) and with PEG-3 [2] (setting [4]) were 15.1 µM, 16 µM and 14.1 µM, respectively.
With `O=C1NC(=S)NC(=O)C1=Cc1cccn1-c1ccc(O)cc1`, the IC50 is 16.4 µM on PEG-3 [1], 18 µM in the experiment on PEG-3 [2] (setting [3]) and 14.8 µM with PEG-3 [2] (setting [4]).
For `COc1ccc(NC(=O)N(C)[C@H]2C[C@H]3c4[nH]c5ccc(-c6cccc(C)c6)cc5c4CCN3C[C@H]2[C@H](C)O)cc1` the same measures were “inactive”, 23.6 µM and 22.7 µM.
As to `CC1(Cc2ccc(Cl)c(Cl)c2)C(=O)Nc2ccc(S(=O)(=O)NC3CCCCC3)cc21` (stereo not drawn), the IC50 on PEG-3 [1] was 17.7 µM; with PEG-3 [2] (setting [3]) it was 18.1 µM; in the experiment with PEG-3 [2] (setting [4]) it was 17.2 µM.
On the same counts, the results for `COc1ccc2c(c1)C=C([C@@H]1C[C@H]3CN(c4ccccc4)C(=O)[C@]34CCCN14)CO2` are > 100 µM (inactive), more than 100 µM and more than 100 µM.
On the same counts, the results for `CC(=O)Nc1cccc(-c2ccnc3c2CC(C)(C(=O)Nc2cccc(OC(F)(F)F)c2)O3)c1` (stereo not drawn) are 17.3 µM, 8.81 µM and 25.7 µM.
On the same counts, the results for `COc1ccc(C2c3ccc4ccccc4c3Oc3ncn(CCO)c(=N)c32)cc1OC` (stereo not drawn) are 14.7 µM, 15.6 µM and 13.7 µM.
`CC(C)NC(=O)NC(=O)COC(=O)c1c2c(nc3ccccc13)CCC2`: on PEG-3 [1], the IC50 entry is “inactive”. The IC50 turned out to be 16.5 µM in the experiment on PEG-3 [2] (setting [3]) and 27.8 µM in the experiment with PEG-3 [2] (setting [4]).
As for `COc1ccc(NS(=O)(=O)c2ccc3ccccc3c2)c2ncccc12`, the IC50 at PEG-3 [1] is 17.6 µM; in the experiment with PEG-3 [2] (setting [3]), 13.5 µM; with PEG-3 [2] (setting [4]), 21.6 µM.
On to `CCCCNc1nc(=S)n(-c2ccccc2)c(C)c1C(C)=O`, for which the concentration for half-maximal inhibition (IC50) at PEG-3 [1] was 17.3 µM; with PEG-3 [2] (setting [3]), 22 µM; in the experiment on PEG-3 [2] (setting [4]), 12.6 µM.
On the same counts, the results for `Cc1ccc2cccc(OCC(=O)Nc3cccc(S(=O)(=O)N4CCCC4)c3)c2n1` are “inactive”, 22.3 µM and 33.9 µM.
On the same counts, the results for `Cc1ccc(-c2nc(C(Cl)Cl)c3ccccc3n2)cc1` are “inactive”, more than 100 µM and 9.67 µM.
On the same counts, the results for `O=C(CCl)N1N=C(c2ccco2)CC1c1cccs1` (stereo not drawn) are “inactive”, 24.2 µM and 30.4 µM.
In the case of `O=C1C(Cl)=C(Nc2ccc(O)cc2)C(=O)c2ccccc21`, the IC50 was 11.6 µM on PEG-3 [1], 16.1 µM in the experiment with PEG-3 [2] (setting [3]) and 7.05 µM in the experiment on PEG-3 [2] (setting [4]).
For `COc1ccc(C(O)(CC(C)C)C(CN2CCOCC2)c2ccccc2)cc1` (stereo not drawn) the same measures were “inactive”, more than 100 µM and 6.84 µM.
On the same counts, the results for `CCCc1cc(=O)n2[nH]c(C)c(-c3ccc(Cl)cc3)c2n1` are 12.9 µM, 14 µM and 11.8 µM.
For `O=C(O)c1ccc(N/N=C/c2ccc(OC(=O)c3ccccc3Cl)cc2)cc1` the same measures were “inactive”, 3.06 µM and 78.5 µM.
With `CCCC(=O)NC(c1cccc([N+](=O)[O-])c1)c1ccc2cccnc2c1O` (stereo not drawn), the IC50 is 11.1 µM at PEG-3 [1], 3.15 µM with PEG-3 [2] (setting [3]) and 19 µM in the experiment on PEG-3 [2] (setting [4]).
Turning to `Cc1cc(C)c2sc(N(CCCN(C)C)C(=O)c3ccc(S(=O)(=O)N4CCCc5ccccc54)cc3)nc2c1`, the IC50 was 14.7 µM on PEG-3 [1], 20.7 µM in the experiment on PEG-3 [2] (setting [3]) and 8.73 µM with PEG-3 [2] (setting [4]).
For `CCN1CCN(c2ccc(S(=O)(=O)N3CCOCC3)cc2NC(=O)/C=C/c2ccc([N+](=O)[O-])cc2)CC1` the same measures were “inactive”, 19 µM and 78.3 µM.
